From patent publication US20220288052A1, “COMPOUND FOR COMBINATION TREATMENT” (priority 2019, published 2022)
Where two headings read alike, the source gives them in different places.

Tests used:
[1] = biological target: NA transporter (Rattus norvegicus, UniProt Q63380); experiment: ^3H-uptake rat, NA transporter; format: biochemical
Source text: Compound (I) has been characterized as a monoamine reuptake inhibitor, based on the profile in a series of functional assays (Table 2).

[2] = Metabolic stability in liver microsomes, mouse; format: in vitro ADME
Experimental: The metabolic stability of compound (I) was tested in liver microsomes from all in house available species at 1 and 5 μM. One metabolite of 16 mass units higher than parent, was found in all incubations, except with human liver microsomes.

[3] = test system: plasma protein; experiment: Plasma protein binding by equilibrium dialysis, human; format: in vitro ADME
Experimental: The plasma protein binding was tested in rat, mouse, dog and human plasma by equilibrium dialysis. The plasma protein binding of this compound is remarkably low (Table 24).

[4] = 5 days p.o. tolerated dose study in female rats (non-GLP); format: in vivo, rat; conditions: p.o. 5 days, 30, 60, 90 mg/kg
[5] = Bioavailability study in rat
[6] = test system: NMRI mice; experiment: Locomotor activity (mLA); format: in vivo, mouse
Experimental: FIG. 8: The effects of compound (I) on locomotor activity. Compound (I) p.o. in NMRI mice. TSE Motility.
(§1) Compound (I) was tested in a classical test often used to measure the ability of a compound to block the reuptake of 5-HT in vivo: nialamide-induced 5-HT syndrome (m5-HT). In addition, compound (I) was tested in a locomotor activity paradigm (mLA) as a measure of its ability to block the reuptake of DA and therefore induce motility. It is generally accepted that >60% DA transporter blockade is needed to induce increased motility in this test.

[7] = test system: nialamide pre-treated mice; experiment: Nialamide-induced 5-HT syndrome (m5-HT); format: in vivo, mouse
Experimental: 50 mg/kg nialamide s.c. t=120 min. Compound (I) p.o. t=0. n=4.
as §1

[8] = test system: mice erectile tissue; experiment: Penile flow by laser doppler in mice; format: in vivo, mouse
Experimental: FIG. 33: Flow laser doppler raw data from mice erectile function (top), and average flow changes (EF) in mice erectile tissue (bottom). The increase in penile flow induced by compound (I) (1 mg/kg) was highly significant and increased 4.99 times, n=2.
A laser doppler flow probe was positioned in situ in mice erectile tissue for measurement of penile basal flow in the absence and the presence of compound (I).

[9] = Tissue distribution after single dose, mouse; format: in vivo; conditions: po; for AUC(0-t): female, NMRI, mouse 10 mg/kg p.o., read-out: AUC(0-24 h); for half-life: female NMRI mouse 10 mg/kg p.o., read-out: T½ (converted)
Experimental: Compound (I) was dosed to female NMRI mice 10 mg/kg p.o. Plasma was taken 0.5, 1, 2, 4, 6 and 24 post dose. Brain, liver and lung were taken 1, 4 and 24 hours post dose.
AUC and T½ were calculated for plasma and organs, even though the data are very sparse for the organs.

[10] = in vivo; conditions: male, Wistar, rat, plasma
[11] = test system: anesthetized rats; experiment: Induction of erection in anesthetized rats (intracavernous pressure); format: in vivo, rat
Experimental: FIG. 25: Average spontaneous increases in (A) intracavernous pressure, (B) duration and (C) frequency of these events after infusion of the compound (I) (1 mg/kg) in young (6 week old male Wistar rats) and old (14-16 week old male rats) rats. Results are means±s.e. mean.
FIG. 26: Average rises in number of spontaneous erections measured as intracavernous pressure (ICP) after infusion of, respectively, 0.001 mg/kg, 0.01 mg/kg, 0.1 mg/kg, and 1 mg/kg compound (I) in anesthetized rats (n=4-6).
FIG. 27: Average effect of (A) vehicle (n=5), and compound (I) on mean arterial pressure (MAP) and erectile response measured as peak intracavernous pressure (PICP) over MAP (PICP/MAP) in anesthetized (B) 6 week old male Wistar rats (n=6), and (C) 14-16 week old male rats (n=6). Vehicle and compound (I) were administered after establishing the maximal (10 Hz, 1 ms, 6 V) and submaximal (submax) responses (10 Hz, 1 ms, 0.6-1.55 V) to cavernous nerve stimulation for 30 s. Submaximal stimulation was repeated 3, 13, 23, and 33 min after drug or vehicle administration. Upper traces show the mean arterial pressure (MAP), bars represent the erectile response ((PICP/MAP)·100), where PICP is the peak intracavernous pressure. […]
Compound (I) was administered intravenously to rats in dosages of 0.001, 0.01, 0.1, and 1.0 mg/kg, and the number of spontaneous erections was measured. […]

[12] = biological target: T1, 5-HT transporter (Mus musculus, UniProt Q60857); experiment: Ex vivo 5-HT uptake in mice
T1 construct: from tissue; host or cells: tissue of dosed animals (ex vivo)
T1 sequence (Q60857 whole entry): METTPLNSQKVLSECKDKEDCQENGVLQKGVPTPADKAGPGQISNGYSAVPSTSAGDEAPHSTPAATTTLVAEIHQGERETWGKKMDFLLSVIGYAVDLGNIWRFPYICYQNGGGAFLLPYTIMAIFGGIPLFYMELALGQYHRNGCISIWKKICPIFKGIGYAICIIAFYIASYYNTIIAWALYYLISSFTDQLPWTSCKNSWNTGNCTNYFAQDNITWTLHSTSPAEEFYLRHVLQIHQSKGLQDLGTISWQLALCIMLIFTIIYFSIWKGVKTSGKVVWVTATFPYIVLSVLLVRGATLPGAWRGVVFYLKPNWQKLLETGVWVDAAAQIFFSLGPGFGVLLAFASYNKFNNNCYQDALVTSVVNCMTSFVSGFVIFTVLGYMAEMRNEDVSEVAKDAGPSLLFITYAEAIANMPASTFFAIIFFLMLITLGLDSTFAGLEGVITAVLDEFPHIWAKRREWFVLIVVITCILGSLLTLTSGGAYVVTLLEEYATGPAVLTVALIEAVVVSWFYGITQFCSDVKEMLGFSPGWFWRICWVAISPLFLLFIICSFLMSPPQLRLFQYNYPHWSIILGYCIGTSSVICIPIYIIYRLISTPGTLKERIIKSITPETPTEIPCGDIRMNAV
Experimental: The in vivo receptor occupancy (RO %) of compound (I) was calculated at the MED values (DOSE) in mFST and in the mouse motility test using the formula RO % (estimated)=DOSE 100/(ED50+DOSE). The calculations were based on ED50 values in ex vivo uptake of 5-HT and NA and WIN in vivo binding.

NA transporter, sequence (Q63380 1-617): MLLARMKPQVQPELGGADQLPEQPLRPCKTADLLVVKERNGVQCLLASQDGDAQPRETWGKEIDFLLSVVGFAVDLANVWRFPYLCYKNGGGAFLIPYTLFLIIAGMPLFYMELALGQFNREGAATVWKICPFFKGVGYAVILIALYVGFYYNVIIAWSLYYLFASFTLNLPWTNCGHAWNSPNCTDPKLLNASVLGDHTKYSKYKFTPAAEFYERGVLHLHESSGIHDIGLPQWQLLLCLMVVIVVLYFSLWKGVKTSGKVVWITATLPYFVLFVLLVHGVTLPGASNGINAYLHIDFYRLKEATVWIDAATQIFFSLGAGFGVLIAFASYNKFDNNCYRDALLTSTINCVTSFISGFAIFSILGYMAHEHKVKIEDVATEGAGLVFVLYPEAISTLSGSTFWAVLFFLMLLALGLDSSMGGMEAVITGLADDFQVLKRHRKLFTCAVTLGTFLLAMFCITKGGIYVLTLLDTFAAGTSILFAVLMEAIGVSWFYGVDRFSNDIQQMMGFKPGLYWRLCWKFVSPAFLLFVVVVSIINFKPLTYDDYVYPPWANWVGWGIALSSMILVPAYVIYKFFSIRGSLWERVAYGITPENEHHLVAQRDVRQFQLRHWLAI

O=c1ccc2ccc(O[C@@H]3C[C@H]4CC[C@@H](C3)N4)cc2o1 [Compound (I), exo-7-(8-aza-bicyclo[3.2.1]oct-3-yloxy)-chromen-2-one]
IC50 [1]: 0.085 µM | Stability at 1 μM [2]: 89% | Stability at 5 μM [2]: 100% | fraction unbound at 2710 ng/ml [3]: 0.714 | Activity [4]: increased activity | Body weight gain [4]: no changes in body weight gain | T½ i.v. ([5]; rat, 2.5 mg/kg i.v., 2.5 mg/kg): 0.6 h | Tolerability of i.v. dose ([5]; rats, 10 mg/kg i.v.): *Rats could not tolerate 10 mg/kg i.v. because of exaggerated dopaminergic effects. | MED ([6]; mLA, 1, 3, 10 mg/kg p.o. −60 min + SCH23390 0.00375 mg/kg s.c. −60 min): 10 mg/kg | MED ([6]; mLA, p.o. 0 min): 10 mg/kg | MED ([7]; m5-HT, p.o. 0 min): 0.1 mg/kg | Potency in 5-HT syndrome relative to the reference compounds tested ([7]; nialamide pre-treated mice): 100 times | Increase in penile flow ([8]; 1 mg/kg, n=2): 4.99 times | Penile flow ([8]; infusion of 1 mg/kg): markedly increased | AUC(0-t) ([9]; Brain): 9350 ng·h/mL | AUC(0-t) ([9]; Liver): 38500 ng·h/mL | AUC(0-t) ([9]; Lung): 35700 ng·h/mL | AUC(0-t) ([9]; Plasma): 2220 ng·h/mL | half-life ([9]; Brain): 3 h | half-life ([9]; Liver): 2.5 h | half-life ([9]; Lung): 2.2 h | half-life ([9]; Plasma): 1.1 h | Vd ([10]; intravenous, 2.5 mg/kg): 5.6 L/kg | clearance ([10]; intravenous, 2.5 mg/kg): 137 mL/min/kg | AUC(0-inf) ([10]; iv, 2.5 mg/kg): 306 ng·h/mL | half-life ([10]; iv, 2.5 mg/kg): 0.8 h | bioavailability ([10]; oral, 5 mg/kg): 3% | AUC(0-inf) ([10]; po, 5 mg/kg): 17 ng·h/mL | Cmax ([10]; po, 5 mg/kg): 8 ng/mL | Tmax ([10]; po, 5 mg/kg): 0.5 h | Induction of erection ([11]; 1 mg/kg): induce erection in both young and adult rats | Number of spontaneous erections versus dose ([11]; intravenously 0.001, 0.01, 0.1 and 1.0 mg/kg): increased with increasing dosage from 0.001 to 0.1 mg/kg, but decreased abruptly at a dose of 1.0 mg/kg | 5-HT RO % ([12]; estimated at MED in mFST (NMRI mice), DOSE 1 mg/kg): 34% | 5-HT RO % ([12]; estimated at MED in mMotility, DOSE 10 mg/kg): 84% | ED50 ([12]; mouse, po): 1.9 mg/kg
